Measured values from patent US8883963B2 (Cadila Healthcare Limited, priority 2007, dated 2014).
Starred links: 1 amine or outer side, 2 acyl side, 3 side chain; linkers in the order of their positions; H or OH if unused. Non-standard residues stand in square brackets, D forms with d. Residues, ends and D or L forms follow the SMILES beside them. ξ: configuration not given here. ξBip(2'-Et-4'-OMe) = CCc1cc(OC)ccc1-c1ccc(CC(N)C(=O)O)cc1; X1 = O=C(C(CCCc1ccc(C(F)(F)F)cc1F)N[*:1])[*:2]; ξNva(5-(3-Cl-Ph)) = NC(CCCc1cccc(Cl)c1)C(=O)O; Ac5c = NC1(C(=O)O)CCCC1

What was measured:
[1] = tested on: RIN5F (Rat Insulinoma) cells; test: In vitro glucose-dependent insulin secretion (RIN5F cell assay screening protocol); format: cell-based; settings: 16.7 mM glucose load
[2] = molecular target: T1, human glucagon receptor (Homo sapiens, UniProt P47871); test: In vitro human glucagon antagonist activity (inhibition of cAMP production) in CHO/human glucagon R cells; format: cell-based; settings: with saturated concentration of glucagon peptide
T1 construct: The full-length cDNA was cloned in pcDNA3.1 (Invitrogen); expressed in transfected cells
T1 sequence (P47871 26-477): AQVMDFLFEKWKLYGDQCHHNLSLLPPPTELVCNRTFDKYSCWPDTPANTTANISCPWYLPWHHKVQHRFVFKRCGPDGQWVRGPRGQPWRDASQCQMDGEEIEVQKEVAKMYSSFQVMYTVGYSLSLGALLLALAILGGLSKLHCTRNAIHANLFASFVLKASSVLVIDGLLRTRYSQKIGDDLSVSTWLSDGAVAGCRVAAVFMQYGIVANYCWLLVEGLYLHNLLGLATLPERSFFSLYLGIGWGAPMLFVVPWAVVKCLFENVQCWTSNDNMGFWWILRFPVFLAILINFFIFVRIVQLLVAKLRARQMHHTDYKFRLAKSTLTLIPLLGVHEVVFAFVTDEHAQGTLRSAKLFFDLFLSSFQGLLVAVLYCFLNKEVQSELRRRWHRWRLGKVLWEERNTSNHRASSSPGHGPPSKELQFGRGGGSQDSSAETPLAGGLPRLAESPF

[3] = molecular target: DPP IV (Homo sapiens, UniProt P27487); test: Stability against DPP IV enzyme; format: in vitro ADME; settings: 37° C.; for % degradation of peptidomimetics in 24 h when incubated with DPP-IV enzyme: 2 μM peptidomimetic; for half-life at 2 μM: DPP IV enzyme, pH 7.8, 2 μM peptidomimetic, read-out: half-life (t1/2) when incubated with DPP-IV enzyme
Sequence of DPP IV (P27487 whole entry, species assumed): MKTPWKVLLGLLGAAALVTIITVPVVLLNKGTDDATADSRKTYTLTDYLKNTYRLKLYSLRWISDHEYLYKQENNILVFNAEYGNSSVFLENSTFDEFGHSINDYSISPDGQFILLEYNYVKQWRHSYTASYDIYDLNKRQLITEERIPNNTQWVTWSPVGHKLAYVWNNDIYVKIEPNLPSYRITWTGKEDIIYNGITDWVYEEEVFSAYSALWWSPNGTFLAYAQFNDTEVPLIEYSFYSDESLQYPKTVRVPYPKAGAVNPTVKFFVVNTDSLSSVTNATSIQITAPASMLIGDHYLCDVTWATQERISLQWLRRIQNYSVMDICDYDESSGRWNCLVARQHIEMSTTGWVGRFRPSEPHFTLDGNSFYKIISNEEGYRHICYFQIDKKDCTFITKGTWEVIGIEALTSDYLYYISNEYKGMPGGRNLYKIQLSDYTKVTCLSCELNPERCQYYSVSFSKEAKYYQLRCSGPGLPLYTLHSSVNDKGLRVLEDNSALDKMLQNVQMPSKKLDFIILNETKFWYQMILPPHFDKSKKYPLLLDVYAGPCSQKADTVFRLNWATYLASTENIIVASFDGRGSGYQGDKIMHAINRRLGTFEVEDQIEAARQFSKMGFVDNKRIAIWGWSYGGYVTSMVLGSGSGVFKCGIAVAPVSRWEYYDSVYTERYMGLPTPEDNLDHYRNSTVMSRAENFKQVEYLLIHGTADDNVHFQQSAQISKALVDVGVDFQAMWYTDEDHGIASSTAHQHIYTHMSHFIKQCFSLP
Description: (§1) Reactions were terminated by the addition of TFA/H2O (15 mL, 10% (v/v)). […] The column was equilibrated with TFA/H20, at a flow rate of 1 mL/min.

[4] = Stability in human plasma; format: in vitro ADME; settings: 2 μM peptidomimetic, pooled human plasma, 37° C.; for half-life at 2 μM: pH 7.8, read-out: half-life (t1/2) when incubated with human plasma
Description: as §1

[5] = Stability in simulated gastric fluid; format: in vitro ADME; settings: 2 μM peptidomimetic, simulated gastric fluid pH 1.5, 37° C.; for half-life at 2 μM: read-out: half-life (t1/2) when incubated with simulated gastric fluid
Description: as §1

[6] = Stability in simulated intestinal fluid; format: in vitro ADME; settings: 2 μM peptidomimetic, simulated intestinal fluid pH 7.5, 37° C.; for half-life at 2 μM: read-out: half-life (t1/2) when incubated with simulated intestinal fluid
Description: as §1

[7] = Stability in liver microsomes; format: in vitro ADME; settings: 2 μM peptidomimetic, human liver microsomes, 37° C.; for half-life at 2 μM: pH 7.8, read-out: half-life (t1/2) when incubated with liver microsomes
Description: as §1

Row | Compound | Insulin secretion ([1]; 0.1 nM test compd.) | Insulin secretion ([1]; 1 nM test compd.) | Insulin secretion ([1]; 10 nM test compd.) | Human Glucagon receptor antagonistic activity shown as inhibition of cAMP production of Glucagon peptide ([2]; 1 nM test compound) | Human Glucagon receptor antagonistic activity shown as inhibition of cAMP production of Glucagon peptide ([2]; 10 nM test compound) | Human Glucagon receptor antagonistic activity shown as inhibition of cAMP production of Glucagon peptide ([2]; 100 nM test compound) | Human Glucagon receptor antagonistic activity shown as inhibition of cAMP production of Glucagon peptide ([2]; 1 μM test compound) | Human Glucagon receptor antagonistic activity shown as inhibition of cAMP production of Glucagon peptide ([2]; 10 μM test compound) | % degradation of peptidomimetics in 24 h when incubated with DPP-IV enzyme [3] | half-life at 2 μM [3] | % degradation of peptidomimetics in 24 h when incubated with human plasma [4] | half-life at 2 μM [4] | half-life (t1/2) when incubated with simulated gastric fluid [5] | % degradation of peptidomimetics in 24 h when incubated with simulated gastric fluid [5] | half-life (t1/2) when incubated with simulated intestinal fluid [6] | % degradation of peptidomimetics in 24 h when incubated with simulated intestinal fluid [6] | % degradation of peptidomimetics in 24 h when incubated with liver microsomes [7] | half-life at 2 μM [7] | half-life at 2 μM [5] | half-life at 2 μM [6] | further results
1 | CCc1cc(OC)ccc1-c1ccc(CC(NC(=O)[C@H](CC(=O)O)NC(=O)[C@H](CO)NC(=O)[C@@H](NC(=O)C(C)(Cc2ccccc2F)NC(=O)[C@@H](NC(=O)CNC(=O)C(CCC#N)NC(=O)C(C)(C)NC(=O)[C@@H](N)Cc2c[nH]cn2)[C@H](C)O)[C@H](C)O)C(=O)N(C)C(CCCc2ccccc2F)C(N)=O)cc1 (single isomer, unassigned) [compound 132] | 13.1 ± 0.11 pg/µg/h | 14.9 ± 0.17 pg/µg/h | 28.8 ± 0.44 pg/µg/h | 15 ± 0.11 pmol/ml/μg prt | 12 ± 0.13 pmol/ml/μg prt | 8 ± 0.09 pmol/ml/μg prt | 4 ± 0.01 pmol/ml/μg prt | 2 ± 0.08 pmol/ml/μg prt | 75% | 9 h | 77% | 8 h | (8) h | 14% | (6) h | 45% | 81% | 1 h |  |  | 
2 | CCc1cc(OC)ccc1-c1ccc(CC(C(=O)N(C)C(CCCc2ccccc2)C(N)=O)N(C)C(=O)[C@H](CC(=O)O)NC(=O)[C@H](CO)NC(=O)[C@@H](NC(=O)C(C)(Cc2ccccc2F)NC(=O)[C@@H](NC(=O)CNC(=O)C(CCC#N)NC(=O)C(C)(C)NC(=O)[C@@H](N)Cc2c[nH]cn2)[C@H](C)O)[C@H](C)O)cc1 (single isomer, unassigned) [compound 142] | 12.9 ± 0.14 pg/µg/h | 15.8 ± 0.13 pg/µg/h | 29.9 ± 0.15 pg/µg/h | 10 ± 0.03 pmol/ml/μg prt | 8 ± 0.03 pmol/ml/μg prt | 6 ± 0.22 pmol/ml/μg prt | 2 ± 0.13 pmol/ml/μg prt | 0 pmol/ml/μg prt | 77% | 9 h | 80% | 8 h | (8) h | 13% | (6) h | 50% | 82% | 1 h |  |  | 
3 | CCc1cc(OC)ccc1-c1ccc(CC(NC(=O)[C@H](CC(=O)O)NC(=O)[C@H](CO)NC(=O)[C@@H](NC(=O)[C@H](Cc2ccccc2)NC(=O)[C@@H](NC(=O)CNC(=O)[C@H](CCC(N)=O)NC(=O)C2(NC(=O)[C@@H](N)Cc3c[nH]cn3)CCCC2)[C@@H](C)O)[C@@H](C)O)C(=O)NC(CCCc2cccc(Cl)c2)C(N)=O)cc1 (some centres unmarked) [compound 27] (H-H[Ac5c]QGTFTSD[ξBip(2'-Et-4'-OMe)][ξNva(5-(3-Cl-Ph))]-NH2) | 16.4 ± 0.12 pg/µg/h | 22.7 ± 0.17 pg/µg/h | 36.6 ± 0.05 pg/µg/h |  |  |  |  |  | 00% | > 24 h | 00% | > 24 h |  | 00% |  | 00% | 31% |  | > 24 h | > 24 h | half-life (t1/2) when incubated with liver microsomes [7]: (5) h
4 | CCc1cc(OC)ccc1-c1ccc(CC(NC(=O)[C@H](CC(=O)O)NC(=O)[C@H](CO)NC(=O)[C@@H](NC(=O)[C@H](Cc2ccccc2)NC(=O)[C@@H](NC(=O)CNC(=O)C(CCC#N)NC(=O)C(C)(C)NC(=O)[C@@H](N)Cc2c[nH]cn2)[C@@H](C)O)[C@@H](C)O)C(=O)NC(CCCc2cccc(Cl)c2)C(N)=O)cc1 (single isomer, unassigned) [compound 31] | 16.8 ± 0.20 pg/µg/h | 22.7 ± 0.29 pg/µg/h | 36.6 ± 0.31 pg/µg/h | 6 ± 0.02 pmol/ml/μg prt | 5 ± 0.03 pmol/ml/μg prt | 2 ± 0.61 pmol/ml/μg prt | 0 pmol/ml/μg prt | 0 pmol/ml/μg prt | 76% |  | 78% |  |  | 100% |  | 100% | 100% | 0.5 h | 0.5 h | 0.5 h | half-life (t1/2) when incubated with human plasma [4]: (9) h
5 | CCc1cc(OC)ccc1-c1ccc(CC(NC(=O)[C@H](CC(=O)O)NC(=O)[C@H](CO)NC(=O)[C@@H](NC(=O)[C@H](Cc2ccccc2)NC(=O)[C@@H](NC(=O)CNC(=O)[C@H](CCC(N)=O)NC(=O)[C@H](CO)NC(=O)[C@@H](N)Cc2c[nH]cn2)[C@@H](C)O)[C@@H](C)O)C(=O)NC(CCCc2ccc(C(F)(F)F)cc2F)C(N)=O)cc1 (some centres unmarked) [compound 49] (H-HSQGTFTSD[ξBip(2'-Et-4'-OMe)][X1]-NH2) | 16.1 ± 0.22 pg/µg/h | 22.1 ± 0.26 pg/µg/h | 36.0 ± 0.36 pg/µg/h | 10 ± 0.03 pmol/ml/μg prt | 8 ± 0.03 pmol/ml/μg prt | 6 ± 0.22 pmol/ml/μg prt | 2 ± 0.13 pmol/ml/μg prt | 0 pmol/ml/μg prt | 75% | 9 h | 77% | 8 h | (8) h | 14% | (6) h | 45% | 81% | 1 h |  |  | 
6 | CCc1cc(OC)ccc1-c1ccc(CC(NC(=O)[C@H](CC(=O)O)NC(=O)[C@H](CO)NC(=O)[C@@H](NC(=O)[C@H](Cc2ccccc2)NC(=O)[C@@H](NC(=O)CNC(=O)C(CCC#N)NC(=O)C(C)(C)NC(=O)[C@@H](N)Cc2c[nH]cn2)[C@@H](C)O)[C@@H](C)O)C(=O)NC(CCCc2ccc(F)cc2F)C(N)=O)cc1 (single isomer, unassigned) [compound 78] | 16.6 ± 0.41 pg/µg/h | 22.9 ± 0.32 pg/µg/h | 36.7 ± 0.11 pg/µg/h | 22 ± 0.03 pmol/ml/μg prt | 21 ± 0.05 pmol/ml/μg prt | 20 ± 0.07 pmol/ml/μg prt | 18 ± 0.04 pmol/ml/μg prt | 18 ± 0.03 pmol/ml/μg prt | 70% |  | 71% |  |  | 100% |  | 100% | 100% | 0.5 h | 0.5 h | 0.5 h | half-life (t1/2) when incubated with human plasma [4]: (9) h
